Reference: paper PMC11292009, “Mapping protein binding sites by photoreactive fragment pharmacophores” (Communications Chemistry, 2024)
Several values for one entry are separate records, joined by “and”; a condition that tells them apart may be missing. Equal entries are not always repeated.

Tests used:
MOLM-13 cells = test: CellTiter-Blue cell viability assay, MOLM-13; type: cell-based; details: Homo sapiens, MOLM-13, 72 h
Experimental: (§1) MV4-11 and MOLM-13 cell lines were purchased from DSMZ (Braunschweig, Germany), and grown at 37 °C and 5% CO2 in RPMI 1640 medium (Gibco^TM, Thermo Fisher Scientific). Media were supplemented with 10% fetal calf serum (FCS), 10 U/mL penicillin, 10 µg/mL streptomycin and 2 mM L-glutamine (all Gibco^TM, Thermo Fisher Scientific).
(§2) To determine the IC50 of the selected compounds on the cell lines, CellTiter-Blue® cell viability assay (Promega) was performed. For this, cells were seeded in 96-well flat bottom plates at a cell density of 10,000 cells/well. Cells were treated in triplicates with the compound of interest at various concentrations or with 10 μM Bortezomib (S1013; Selleck Chemicals, Houston, TX, USA) as a positive control. Cell viability of treated cell lines was measured using CellTiter-Blue® after 72 h incubation. Plates were measured using a GloMax® plate reader (Promega) and IC50 values were determined by non-linear regression using the GraphPad Prism 9.1.1 (GraphPad Software, Inc.) and the data are reported as mean values ± SEM.

[1] = test system: carbonic anhydrase II (CA); test: Intact protein MS photoaffinity labeling screen, carbonic anhydrase; type: binding; details: intact protein MS after 10 min irradiation
Procedure, shortened: (§3)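 Fragments tested one per well, each incubated 15 min with protein to form non-covalent complexes before photo-crosslinking. Labeling read directly by intact protein MS as mass additions matching fragment adducts, expressed as labeling %.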

MV4-11 cells = test: CellTiter-Blue cell viability assay, MV4-11; type: cell-based; details: Homo sapiens, MV4-11, 72 h
Experimental: as §1, §2

myoglobin (Myo) = test: Intact protein MS photoaffinity labeling screen, myoglobin; type: binding; details: intact protein MS after 10 min irradiation
Procedure, shortened: as §3

KRas^G12D = test system: T1, KRas^G12D; test: Intact MS photoaffinity labeling screen, KRas G12D (302 nm, LCMS-TOF); type: binding; details: for MS labeling percentage, KRas: KRas G12D, 302 nm 10 min
T1 construct: purchased GSK/GenScript
Procedure, shortened: (§4)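 Labeling detected as mass additions in deconvoluted intact-protein LCMS-TOF spectra. Protein at 1 μM in PBS was first mixed with one fragment per well on ice for 15 min, followed by 10 min UV exposure at 302 nm.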

[2] = test system: CA, Lyo, Myo, BRD4-BD1, KRas G12D, STAT5B-NTD; test: Intact MS labeling compared over all protein targets; type: binding; details: for Labeling of the other protein targets (vs. preferred target): each of the other targets
Experimental: Using a plate-based format with one fragment per well, each fragment was incubated with the target proteins for 15 min to allow for the formation of non-covalent interactions. The plate was then irradiated at 302 or 365 nm for 10 min to enable the bound fragments to crosslink to the protein[26]. Finally, the results were directly analyzed from the plate using intact protein mass spectrometry by observing the mass additions that correspond to successful labeling (Fig. 2c, for labeling % values see Supplementary data). The library was first characterized against three benchmark proteins like carbonic anhydrase (CA), lysozyme (Lyo), and myoglobin (Myo).
The PhP library was screened against BRD4-BD1 and KRas^G12D as follows. Using a Labcyte Echo® 555 Liquid Handler, 150 nL of fragment solution (20 mM) was transferred into a Greiner 384 low-volume plate (white) to prepare the probe plate. The probe plate was placed on ice. 15 μL of protein stock solution (1 μM BRD4-BD1 (GSK/GenScript) or KRas^G12D (GSK/GenScript) in PBS buffer) was dispensed into wells containing fragments. The plate was left on ice for 15 min for incubation, then irradiated at 302 nm for 10 min, and centrifuged (1000 rpm, 1 min) to remove any bubbles. The plate was then analyzed by LCMS-TOF mass spectrometry (Agilent 1200 series liquid chromatography with Agilent Bio-HPLC PLRP-S (1000 Å, 5 µm × 50 mm × 1.0 mm, PL1312-1502) reverse phase HPLC column at 70 °C equipped with an Agilent G6224 time-of-flight (ToF), see Supplementary Note 2 for the full protocols). The deconvoluted spectra were analyzed using R Studio software.
During the analysis, the column temperature was maintained at a constant 60 °C, and a sample volume of 3 µL was injected for each analysis. Data acquisition was conducted in positive ion mode within the m/z 100–2000 (mass-to-charge ratio) range. For the full protocol and spectra of the hits, see Supplementary Note 2.

STAT5B-NTD [3] = test system: T2, STAT5B-NTD; test: Intact MS photoaffinity labeling screen, STAT5B-NTD (365 nm, UHPLC-MS); type: binding;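 for MS labeling percentage, STAT5B: 0.17 µL of 100 mM DMSO fragment stock added to the protein sample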
T2 construct: His-SUMO (N, cleaved yes); made in house; host or cells: E. coli BL21 RILP
Procedure, shortened: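 UV irradiation at 365 nm for 10 min at 4 °C. Labeling read by intact-protein UHPLC-MS, positive ion mode, m/z 100–2000.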

lysozyme (Lyo) = test: Intact protein MS photoaffinity labeling screen, lysozyme; type: binding; details: intact protein MS after 10 min irradiation
Procedure, shortened: as §3

STAT5B-NTD [4] = test system: T2, STAT5B-NTD; test: Intact MS labeling screen, STAT5B-NTD conjugated with photocatalyst Ir-G2-PEG3-COOH (450 nm); type: binding; details: 450 nm 10 min;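 note: 0.14 µL of 100 mM DMSO fragment stock added to the conjugate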
Procedure, shortened: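 Ir-G2-PEG3-COOH photocatalyst (10 eq) activated 30 min with EDC/NHS/BOP, then conjugated to STAT5B-NTD (7 µM) overnight at RT or 1 h at 37 °C in dark. PhP added, 1 h dark, then 450 nm irradiation 10 min at 4 °C; labeling read by intact LC-MS, positive ion mode, m/z 100–2000.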

BRD4-BD1 = test system: T3, BRD4-BD1; test: Intact MS photoaffinity labeling screen, BRD4-BD1 (302 nm, LCMS-TOF); type: binding; details: for MS labeling percentage, BRD4: BRD4-BD1, 302 nm 10 min
T3 construct: screened the PhP library against the first bromodomain of BRD4 (BRD4-BD1); purchased GSK/GenScript
Procedure, shortened: as §4

[5] = PhP library sheet "PhP", binary flag printed as 0 or 1, key not given
[6] = sheet PhP, experimental hit status flag given as 0 or 1

| Compound | IC50 (MOLM-13 cells) [µM] | MS labeling percentage, CA [1] [%] | IC50 (MV4-11 cells) [µM] | MS labeling percentage, Myo (myoglobin (Myo)) [%] | MS labeling percentage, KRas (KRas^G12D) [%] | KRAS-G12D (experimental hit status) (KRas^G12D; [5]) | Labeling of the other protein targets (vs. preferred target) [2] | STAT5B-NTD (experimental hit status) (STAT5B-NTD [3]; [5]) | MS labeling percentage, Lyo (lysozyme (Lyo)) [%] | MS labeling percentage, STAT5B+photocat (STAT5B-NTD [4]) [%] | MS labeling percentage, BRD4 (BRD4-BD1) [%] | BRD4-BD1 (experimental hit status) (BRD4-BD1; [5]) | KRAS-G12D (experimental hit status) (KRas^G12D; [6]) | STAT5B-NTD (experimental hit status) (STAT5B-NTD [3]; [6]) | BRD4-BD1 (experimental hit status) (BRD4-BD1; [6]) | Labeling efficiency over all protein targets (mean ± spread) ([2]; over all protein targets) [%] | MS labeling percentage, STAT5B (STAT5B-NTD [3]; STAT5B-NTD, 365 nm 10 min, no photocatalyst) [%] |
| --- | --- | --- | --- | --- | --- | --- | --- | --- | --- | --- | --- | --- | --- | --- | --- | --- | --- |
| CC1(CCC(=O)NCCc2csc(-c3ccccc3)n2)N=N1 [PhP097, N1=NC1(C)CCC(=O)NCCc2csc(n2)-c3ccccc3] | 68.2 | 0 | 56.6 | 0.1 | 0.2 | 0 | > 3% and < 3% | 1 | 1.8 | 4.2 | 0.5 | 0 | – | – | – | – | – |
| Cc1[nH]c2ccccc2c1SCCNC(=O)CCC1(C)N=N1 [PhP065, c1cccc(c12)c(c(C)[nH]2)SCCNC(=O)CCC3(C)N=N3] | 100 | 0.3 | 76.2 | 0.1 | 0.2 | – | > 3% and < 3% | – | 2.6 | 11.2 | – | – | 0 | 1 | 0 | – | – |
| Cc1ncc(CO)c(CNC(=O)CCC2(C)N=N2)c1O [PhP072, Cc1ncc(CO)c(c1O)CNC(=O)CCC2(C)N=N2] | – | 7.7 | – | 3.3 | 12.2 | – | – | – | 1 | 3.3 | 2.2 | – | 1 | 0 | 1 | 4.4 ± 4.3 | 0 |
